How the values were obtained:
TLK1 = TLK1 (Homo sapiens (Human), UniProt Q9UKI8); assay: KINOMEscan scanMAX; type: binding; settings: 2000 nM; read-out: Percent Control
ADCK3 (CABC1) = ADCK3 (CABC1) (Homo sapiens (Human), UniProt Q8NI60); assay: KINOMEscan scanMAX; type: binding; settings: 2000 nM; read-out: Percent Control
PFTAIRE2 (CDK15) = PFTAIRE2 (CDK15) (Homo sapiens (Human), UniProt Q96Q40); assay: KINOMEscan scanMAX; type: binding; settings: 2000 nM; read-out: Percent Control
FAK (PTK2) = FAK (PTK2) (Homo sapiens (Human), UniProt Q05397); assay: KINOMEscan scanMAX; type: binding; settings: 2000 nM; read-out: Percent Control
RIOK3 = RIOK3 (Homo sapiens (Human), UniProt O14730); assay: KINOMEscan scanMAX; type: binding; settings: 2000 nM; read-out: Percent Control
EIF2AK1 = EIF2AK1 (Homo sapiens (Human), UniProt Q9BQI3); assay: KINOMEscan scanMAX; type: binding; settings: 2000 nM; read-out: Percent Control
FER = FER (Homo sapiens (Human), UniProt P16591); assay: KINOMEscan scanMAX; type: binding; settings: 2000 nM; read-out: Percent Control
SGK (SGK1) = SGK (SGK1) (Homo sapiens (Human), UniProt O00141); assay: KINOMEscan scanMAX; type: binding; settings: 2000 nM; read-out: Percent Control
MYO3B = MYO3B (Homo sapiens (Human), UniProt Q8WXR4); assay: DiscoverX Kd assay; settings: average from duplicate measurements
PCTK3 (CDK18) = PCTK3 (CDK18) (Homo sapiens (Human), UniProt Q07002); assay: KINOMEscan scanMAX; type: binding; settings: 2000 nM; read-out: Percent Control
PRKG2 = PRKG2 (Homo sapiens (Human), UniProt Q13237); assay: KINOMEscan scanMAX; type: binding; settings: 2000 nM; read-out: Percent Control
PRKG2, sequence (Q13237 whole entry): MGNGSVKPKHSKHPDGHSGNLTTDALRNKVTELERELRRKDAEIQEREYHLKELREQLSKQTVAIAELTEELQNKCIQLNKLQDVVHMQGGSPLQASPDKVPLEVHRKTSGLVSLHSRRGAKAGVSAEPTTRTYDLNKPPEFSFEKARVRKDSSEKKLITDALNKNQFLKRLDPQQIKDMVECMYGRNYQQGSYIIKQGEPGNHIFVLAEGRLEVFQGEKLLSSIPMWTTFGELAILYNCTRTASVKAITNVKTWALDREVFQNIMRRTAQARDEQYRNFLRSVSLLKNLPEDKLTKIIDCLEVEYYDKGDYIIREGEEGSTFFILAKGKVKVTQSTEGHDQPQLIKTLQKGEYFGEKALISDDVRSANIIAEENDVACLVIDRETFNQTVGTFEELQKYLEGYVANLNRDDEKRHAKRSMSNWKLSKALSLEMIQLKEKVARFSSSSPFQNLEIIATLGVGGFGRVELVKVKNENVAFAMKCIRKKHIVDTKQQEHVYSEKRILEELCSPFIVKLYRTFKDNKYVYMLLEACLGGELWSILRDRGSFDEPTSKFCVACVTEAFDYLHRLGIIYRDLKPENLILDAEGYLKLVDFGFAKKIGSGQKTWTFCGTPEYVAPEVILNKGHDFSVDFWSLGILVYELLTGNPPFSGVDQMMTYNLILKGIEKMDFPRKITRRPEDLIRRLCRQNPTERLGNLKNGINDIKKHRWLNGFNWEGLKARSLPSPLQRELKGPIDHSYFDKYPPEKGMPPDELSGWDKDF

RAF1 = RAF1 (Homo sapiens (Human), UniProt P04049); assay: KINOMEscan scanMAX; type: binding; settings: 2000 nM; read-out: Percent Control
EGFR(T790M) = EGFR(T790M) (Homo sapiens (Human), UniProt P00533, T790M); assay: KINOMEscan scanMAX; type: binding; settings: 2000 nM; read-out: Percent Control
EGFR(T790M), sequence (P00533 25-1210 T790M): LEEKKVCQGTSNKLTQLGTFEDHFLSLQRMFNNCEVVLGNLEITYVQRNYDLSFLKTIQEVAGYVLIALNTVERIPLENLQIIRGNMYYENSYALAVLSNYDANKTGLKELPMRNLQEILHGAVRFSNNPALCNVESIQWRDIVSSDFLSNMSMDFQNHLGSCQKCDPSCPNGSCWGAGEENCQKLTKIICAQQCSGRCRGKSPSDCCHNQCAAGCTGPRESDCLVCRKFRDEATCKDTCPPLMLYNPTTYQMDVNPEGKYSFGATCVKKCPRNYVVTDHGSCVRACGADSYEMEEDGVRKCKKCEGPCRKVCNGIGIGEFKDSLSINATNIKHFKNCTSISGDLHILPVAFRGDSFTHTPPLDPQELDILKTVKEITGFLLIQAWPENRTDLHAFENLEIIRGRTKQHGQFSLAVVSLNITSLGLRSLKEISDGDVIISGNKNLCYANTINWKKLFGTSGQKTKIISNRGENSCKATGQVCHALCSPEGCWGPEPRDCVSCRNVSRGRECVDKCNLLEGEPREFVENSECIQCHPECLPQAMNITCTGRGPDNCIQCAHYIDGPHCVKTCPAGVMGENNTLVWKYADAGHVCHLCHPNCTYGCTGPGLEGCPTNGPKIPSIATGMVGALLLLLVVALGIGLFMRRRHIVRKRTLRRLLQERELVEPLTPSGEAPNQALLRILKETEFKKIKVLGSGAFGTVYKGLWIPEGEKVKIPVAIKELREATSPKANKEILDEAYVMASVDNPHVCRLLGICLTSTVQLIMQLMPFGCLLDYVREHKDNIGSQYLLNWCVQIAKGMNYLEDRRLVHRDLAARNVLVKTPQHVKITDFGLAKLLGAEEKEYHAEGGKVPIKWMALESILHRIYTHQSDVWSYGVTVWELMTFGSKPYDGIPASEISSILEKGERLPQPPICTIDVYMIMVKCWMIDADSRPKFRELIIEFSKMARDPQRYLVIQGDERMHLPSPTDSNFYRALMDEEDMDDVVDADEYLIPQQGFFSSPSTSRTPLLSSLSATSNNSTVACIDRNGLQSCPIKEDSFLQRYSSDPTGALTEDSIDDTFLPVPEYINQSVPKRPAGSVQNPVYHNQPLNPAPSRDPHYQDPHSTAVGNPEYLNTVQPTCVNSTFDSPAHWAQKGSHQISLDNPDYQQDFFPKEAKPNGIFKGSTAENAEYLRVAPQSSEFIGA

VEGFR2 (KDR) = VEGFR2 (KDR) (Homo sapiens (Human), UniProt P35968); assay: KINOMEscan scanMAX; type: binding; settings: 2000 nM; read-out: Percent Control
[1] = molecular target: PFPK5(P.falciparum) (MAL13P1.279) (Plasmodium falciparum (isolate 3D7), UniProt P61075); assay: KINOMEscan scanMAX; type: binding; settings: 2000 nM; read-out: Percent Control
OSR1 (OXSR1) = OSR1 (OXSR1) (Homo sapiens (Human), UniProt O95747); assay: KINOMEscan scanMAX; type: binding; settings: 2000 nM; read-out: Percent Control
OSR1 (OXSR1), sequence (O95747 whole entry): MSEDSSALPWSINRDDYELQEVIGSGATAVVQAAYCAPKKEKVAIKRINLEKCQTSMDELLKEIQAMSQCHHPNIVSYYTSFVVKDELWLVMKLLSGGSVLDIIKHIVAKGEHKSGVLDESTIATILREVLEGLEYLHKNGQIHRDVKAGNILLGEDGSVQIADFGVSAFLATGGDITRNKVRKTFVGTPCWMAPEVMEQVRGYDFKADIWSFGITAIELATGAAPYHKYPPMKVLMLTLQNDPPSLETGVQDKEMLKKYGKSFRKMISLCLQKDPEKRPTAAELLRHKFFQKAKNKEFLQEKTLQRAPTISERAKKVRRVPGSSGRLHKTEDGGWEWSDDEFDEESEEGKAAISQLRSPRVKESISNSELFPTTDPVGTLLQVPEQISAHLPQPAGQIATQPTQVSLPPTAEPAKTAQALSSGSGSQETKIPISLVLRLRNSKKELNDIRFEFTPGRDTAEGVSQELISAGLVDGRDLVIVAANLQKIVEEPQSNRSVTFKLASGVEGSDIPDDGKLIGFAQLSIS

NIM1 (MGC42105) = NIM1 (MGC42105) (Homo sapiens (Human), UniProt Q8IY84); assay: KINOMEscan scanMAX; type: binding; settings: 2000 nM; read-out: Percent Control
NIM1 (MGC42105), sequence (Q8IY84 whole entry): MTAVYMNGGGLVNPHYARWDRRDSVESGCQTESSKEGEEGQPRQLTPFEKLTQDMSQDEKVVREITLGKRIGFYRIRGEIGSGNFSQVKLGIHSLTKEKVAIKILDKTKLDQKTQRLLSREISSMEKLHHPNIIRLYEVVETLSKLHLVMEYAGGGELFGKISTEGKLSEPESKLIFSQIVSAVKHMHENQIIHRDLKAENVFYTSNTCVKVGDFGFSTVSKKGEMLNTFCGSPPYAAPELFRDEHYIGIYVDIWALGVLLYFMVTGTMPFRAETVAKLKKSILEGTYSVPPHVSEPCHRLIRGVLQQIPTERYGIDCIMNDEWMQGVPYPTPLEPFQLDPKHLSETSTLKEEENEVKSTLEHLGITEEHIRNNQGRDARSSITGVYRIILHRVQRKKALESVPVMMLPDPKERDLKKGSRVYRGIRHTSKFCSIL

PHKG2 = PHKG2 (Homo sapiens (Human), UniProt P15735); assay: KINOMEscan scanMAX; type: binding; settings: 2000 nM; read-out: Percent Control
GRK2 (ADRBK1) = GRK2 (ADRBK1) (Homo sapiens (Human), UniProt P25098); assay: KINOMEscan scanMAX; type: binding; settings: 2000 nM; read-out: Percent Control
NEK9 = NEK9 (Homo sapiens (Human), UniProt Q8TD19); assay: KINOMEscan scanMAX; type: binding; settings: 2000 nM; read-out: Percent Control
BMPR1A = BMPR1A (Homo sapiens (Human), UniProt P36894); assay: KINOMEscan scanMAX; type: binding; settings: 2000 nM; read-out: Percent Control
MAP4K5 = MAP4K5 (Homo sapiens (Human), UniProt Q9Y4K4); assay: KINOMEscan scanMAX; type: binding; settings: 2000 nM; read-out: Percent Control
PIK3C2B = PIK3C2B (Homo sapiens (Human), UniProt O00750); assay: KINOMEscan scanMAX; type: binding; settings: 2000 nM; read-out: Percent Control
[2] = molecular target: RPS6KA5(Kin.Dom.1-N-terminal) (Homo sapiens (Human), UniProt O75582); assay: KINOMEscan scanMAX; type: binding; settings: 2000 nM; read-out: Percent Control
EPHA8 = EPHA8 (Homo sapiens (Human), UniProt P29322); assay: KINOMEscan scanMAX; type: binding; settings: 2000 nM; read-out: Percent Control
EPHA8, sequence (P29322 28-1005): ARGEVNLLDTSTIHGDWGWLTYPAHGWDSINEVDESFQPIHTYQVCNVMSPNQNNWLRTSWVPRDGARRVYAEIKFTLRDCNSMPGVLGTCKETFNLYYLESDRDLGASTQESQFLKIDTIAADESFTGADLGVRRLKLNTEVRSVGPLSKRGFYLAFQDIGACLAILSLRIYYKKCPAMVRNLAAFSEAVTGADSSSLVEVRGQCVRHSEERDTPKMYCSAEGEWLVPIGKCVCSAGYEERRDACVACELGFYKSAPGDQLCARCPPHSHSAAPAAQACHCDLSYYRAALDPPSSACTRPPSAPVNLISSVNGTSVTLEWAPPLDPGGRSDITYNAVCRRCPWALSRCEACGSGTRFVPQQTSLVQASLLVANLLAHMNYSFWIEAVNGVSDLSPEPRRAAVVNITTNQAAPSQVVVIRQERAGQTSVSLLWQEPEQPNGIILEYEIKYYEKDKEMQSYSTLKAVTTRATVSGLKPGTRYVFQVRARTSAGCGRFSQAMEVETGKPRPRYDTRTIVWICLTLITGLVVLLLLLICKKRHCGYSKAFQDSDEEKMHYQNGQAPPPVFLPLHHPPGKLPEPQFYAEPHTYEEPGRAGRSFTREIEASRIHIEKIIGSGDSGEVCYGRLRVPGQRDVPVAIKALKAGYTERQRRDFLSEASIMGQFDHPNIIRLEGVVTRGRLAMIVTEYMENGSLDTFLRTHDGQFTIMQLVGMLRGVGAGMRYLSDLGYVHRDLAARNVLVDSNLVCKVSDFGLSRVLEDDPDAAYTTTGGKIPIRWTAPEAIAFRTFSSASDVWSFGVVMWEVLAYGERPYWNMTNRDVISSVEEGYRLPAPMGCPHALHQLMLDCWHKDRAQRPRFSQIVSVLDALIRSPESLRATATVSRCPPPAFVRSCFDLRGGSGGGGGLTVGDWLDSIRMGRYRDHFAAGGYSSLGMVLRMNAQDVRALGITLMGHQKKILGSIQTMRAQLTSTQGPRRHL

RIPK1 = RIPK1 (Homo sapiens (Human), UniProt Q13546); assay: KINOMEscan scanMAX; type: binding; settings: 2000 nM; read-out: Percent Control
FGR = FGR (Homo sapiens (Human), UniProt P09769); assay: KINOMEscan scanMAX; type: binding; settings: 2000 nM; read-out: Percent Control
MARK3 = MARK3 (Homo sapiens (Human), UniProt P27448); assay: KINOMEscan scanMAX; type: binding; settings: 2000 nM; read-out: Percent Control
FLT3-autoinhibited = FLT3-autoinhibited (Homo sapiens (Human), UniProt P36888); assay: KINOMEscan scanMAX; type: binding; settings: 2000 nM; read-out: Percent Control
ERBB4 = ERBB4 (Homo sapiens (Human), UniProt Q15303); assay: KINOMEscan scanMAX; type: binding; settings: 2000 nM; read-out: Percent Control
MEK4 (MAP2K4) = MEK4 (MAP2K4) (Homo sapiens (Human), UniProt P45985); assay: KINOMEscan scanMAX; type: binding; settings: 2000 nM; read-out: Percent Control
CIT = CIT (Homo sapiens (Human), UniProt O14578); assay: KINOMEscan scanMAX; type: binding; settings: 2000 nM; read-out: Percent Control
CDKL5 = CDKL5 (Homo sapiens (Human), UniProt O76039); assay: KINOMEscan scanMAX; type: binding; settings: 2000 nM; read-out: Percent Control
TESK1 = TESK1 (Homo sapiens (Human), UniProt Q15569); assay: KINOMEscan scanMAX; type: binding; settings: 2000 nM; read-out: Percent Control
DCAMKL1 (DCLK1) = DCAMKL1 (DCLK1) (Homo sapiens (Human), UniProt O15075); assay: KINOMEscan scanMAX; type: binding; settings: 2000 nM; read-out: Percent Control
[3] = molecular target: JAK2(JH1domain-catalytic) (Homo sapiens (Human), UniProt O60674); assay: KINOMEscan scanMAX; type: binding; settings: 2000 nM; read-out: Percent Control
SRC = SRC (Homo sapiens (Human), UniProt P12931); assay: KINOMEscan scanMAX; type: binding; settings: 2000 nM; read-out: Percent Control
SRC, sequence (P12931 whole entry, looked up): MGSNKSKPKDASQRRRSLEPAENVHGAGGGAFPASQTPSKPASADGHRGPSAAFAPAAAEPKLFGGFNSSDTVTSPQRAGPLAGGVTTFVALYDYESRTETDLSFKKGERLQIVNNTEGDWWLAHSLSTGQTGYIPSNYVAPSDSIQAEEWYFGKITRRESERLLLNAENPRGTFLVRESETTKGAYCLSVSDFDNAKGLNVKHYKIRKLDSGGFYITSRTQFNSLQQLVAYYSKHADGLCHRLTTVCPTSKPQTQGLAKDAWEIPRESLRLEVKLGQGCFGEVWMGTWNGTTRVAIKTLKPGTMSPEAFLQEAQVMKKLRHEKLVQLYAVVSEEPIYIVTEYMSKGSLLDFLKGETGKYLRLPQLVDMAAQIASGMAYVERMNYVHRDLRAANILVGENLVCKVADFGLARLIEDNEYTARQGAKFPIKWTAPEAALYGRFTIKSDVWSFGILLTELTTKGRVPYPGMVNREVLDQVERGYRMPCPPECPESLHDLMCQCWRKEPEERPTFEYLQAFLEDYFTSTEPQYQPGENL

MAP4K4 = MAP4K4 (Homo sapiens (Human), UniProt O95819); assay: KINOMEscan scanMAX; type: binding; settings: 2000 nM; read-out: Percent Control
NDR1 (STK38) = NDR1 (STK38) (Homo sapiens (Human), UniProt Q15208); assay: KINOMEscan scanMAX; type: binding; settings: 2000 nM; read-out: Percent Control

PFTAIRE2 (CDK15), sequence (Q96Q40 whole entry): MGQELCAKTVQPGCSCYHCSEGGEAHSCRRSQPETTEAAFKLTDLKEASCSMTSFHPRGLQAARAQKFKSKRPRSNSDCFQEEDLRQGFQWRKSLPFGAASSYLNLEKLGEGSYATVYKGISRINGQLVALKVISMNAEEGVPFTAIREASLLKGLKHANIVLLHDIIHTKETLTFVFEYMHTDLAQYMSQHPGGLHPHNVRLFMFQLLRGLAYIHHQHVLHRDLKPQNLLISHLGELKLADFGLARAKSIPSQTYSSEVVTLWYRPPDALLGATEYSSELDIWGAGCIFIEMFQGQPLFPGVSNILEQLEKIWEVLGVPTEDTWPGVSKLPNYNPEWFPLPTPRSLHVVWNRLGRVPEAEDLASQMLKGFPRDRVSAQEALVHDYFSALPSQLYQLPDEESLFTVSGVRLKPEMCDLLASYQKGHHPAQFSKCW

## CN1CCN(C(=O)c2ccc3cc(CCNc4ccnc5ccc(C#N)cc45)ccc3c2)CC1 [compound 6148, 4-((2-(6-(4-methylpiperazine-1-carbonyl)naphthalen-2-yl)ethyl)amino)quinoline-6-carbonitrile]
TLK1
  remaining binding at 2 µM: 94%
ADCK3 (CABC1)
  remaining binding at 2 µM: 100%
PFTAIRE2 (CDK15)
  remaining binding at 2 µM: 100%
FAK (PTK2)
  remaining binding at 2 µM: 89%
RIOK3
  remaining binding at 2 µM: 85%
EIF2AK1
  remaining binding at 2 µM: 84%
FER
  remaining binding at 2 µM: 91%
SGK (SGK1)
  remaining binding at 2 µM: 50%
MYO3B
  Kd: > 30 µM
PCTK3 (CDK18)
  remaining binding at 2 µM: 97%
PRKG2
  remaining binding at 2 µM: 84%
RAF1
  remaining binding at 2 µM: 98%
EGFR(T790M)
  remaining binding at 2 µM: 93%
VEGFR2 (KDR)
  remaining binding at 2 µM: 82%
[1]
  remaining binding at 2 µM: 70%
OSR1 (OXSR1)
  remaining binding at 2 µM: 51%
NIM1 (MGC42105)
  remaining binding at 2 µM: 67%
PHKG2
  remaining binding at 2 µM: 100%
GRK2 (ADRBK1)
  remaining binding at 2 µM: 63%
NEK9
  remaining binding at 2 µM: 97%
BMPR1A
  remaining binding at 2 µM: 95%
MAP4K5
  remaining binding at 2 µM: 95%
PIK3C2B
  remaining binding at 2 µM: 80%
[2]
  remaining binding at 2 µM: 86%
EPHA8
  remaining binding at 2 µM: 91%
RIPK1
  remaining binding at 2 µM: 100%
FGR
  remaining binding at 2 µM: 90%
MARK3
  remaining binding at 2 µM: 94%
FLT3-autoinhibited
  remaining binding at 2 µM: 88%
ERBB4
  remaining binding at 2 µM: 95%
MEK4 (MAP2K4)
  remaining binding at 2 µM: 58%
CIT
  remaining binding at 2 µM: 48%
CDKL5
  remaining binding at 2 µM: 70%
TESK1
  remaining binding at 2 µM: 96%
DCAMKL1 (DCLK1)
  remaining binding at 2 µM: 63%
[3]
  remaining binding at 2 µM: 56%
SRC
  remaining binding at 2 µM: 92%
MAP4K4
  remaining binding at 2 µM: 93%
NDR1 (STK38)
  remaining binding at 2 µM: 79%
